Experiment [1] deals with T1, human recombinant GABAA α5β3γ2 receptor (Homo sapiens (Human), UniProt P18507+P31644). Nature of the experiment: Functional assay, QPatch automated whole-cell patch clamp, modulation of GABA-evoked current. The experiment is classed as cell-based. As to conditions: read-out: hGABAA α5 efficacy (percentage modulation of GABA-evoked peak current). As for the experimental part:
Human HEK293 cell lines expressing GABAAα5β3γ2 receptors were used in functional assays using the QPatch automated patch clamp system.
HEK293 cell lines stably expressing human recombinant GABAA α5β3γ2 receptor subunits (Millipore, CYL3053) were cultured in DMEM supplemented with 10% FBS (Gibco), passed two times per week and plated on Petri dishes previously coated with poly-d-lysine.
Automated whole-cell patch clamp recordings were made from cells 2-4 days after plating.
Inward currents were evoked at a holding potential of −80 mV by 3-s-long applications of the control agonist GABA at 1 μM at 2-4-min intervals first in concentration-matched DMSO (0.1 or 0.3%) control solution for five times, then in the presence of the test compound for four times, finally in control solution again for three times (wash-out). At the end of the experiment 100 μM GABA was applied to saturate the GABA-response and to assess the efficacy of the control GABA application. Current signals were low-pass filtered at 100 Hz and recorded at a sampling rate of 1 kHz.
The percentage modulation was calculated from the comparison of GABA-evoked peak current amplitudes in the presence and absence of the test compound.
For orientation: Patch clamp records ionic current or voltage across a cell membrane.

The target of experiment [2] is T1, human recombinant GABAA α5β3γ2 receptor. Nature of the experiment: Binding assay, [3H]Ro151788 displacement on HEK cell membranes. As to conditions: [3H]Ro151788 0.5 nM, 60 minutes at 4° C., Cheng-Prusoff; read-out: hGABAA α5 Ki. As for the experimental part:
The GABAA α5β3γ2 protein used for the receptor binding assay was derived from membranes produced from HEK cells (Millipore CYL3073) expressing the human recombinant GABAA α5β3γ2 receptor. Cells were stored and cultured in-house according to the instructions provided by the vendor (Millipore). Cell pellet was homogenized in 10 times modified Krebs Henseleit buffer (membrane preparation buffer): 20 mM Tris, 120 mM NaCl, 100 mM KCl, 25 mM CaCl2 and 25 mM MgCl2 pH=7.4 at 4° C. using Ultra Turrax (Janke&Kunkel) maximal speed for 15 seconds. The homogenate was centrifuged at 40,000 g for 30 minutes at 4° C. Supernatant was discarded and the resulting pellet was washed in membrane preparation buffer. Pellet was resuspended in membrane preparation buffer and aliquots of 1.4 mL ampules were stored at −70° C. until use.
Receptor binding assays were performed in 96-well format in deep-well plates. For each 96-well plate one ampule of membrane homogenate was thawed and diluted in binding buffer (50 mM Tris pH=7.4, 100 mM KCl) and 200 μL was dispensed into each well. Radioligand [^3H]Ro151788 (Perkin Elmer: NET757250UC) was prepared in binding buffer and added to each well in 50 μL volume to give final concentration of 0.5 nM. Test compounds in suitable concentration(s) were added in additional 50 μL. The final assay volume was 300 μL. Incubation was carried out for 60 minutes at 4° C. For non-specific binding 10 μM unlabeled diazepam was used. […] The plate was dried at 40° C. for an hour and 40 μL Microscint (Perkin Elmer) scintillation cocktail was added to each well. The plate was read in Microbeta (Perkin Elmer).
The specific radioligand binding (SB) was defined as the difference between total binding (Tot) and the non-specific binding (NSB). Results are expressed as a percent inhibition of specific binding obtained in the presence of compound of interest.
For IC50 and Ki determination a minimum of six drug concentrations in triplicate were used. […] Ki values (i.e., inhibition constants) were calculated using the Cheng-Prusoff equation Ki=IC5O/[1+(L/KD)], where [L] is the radioligand concentration and KD the affinity of the labelled ligand for receptor. KD was determined from the Saturation analyses.

For experiment [3] the following is noted: mouse stress models and aged mice; cited from earlier work.
The conditions of experiment [4]: rats, developmental models of schizophrenia; cited from earlier work.
The mark [5] stands for this setting: test compound 1 μM, GABA 1 μM, holding potential −80 mV.

Molecules are shown by their SMILES. Where a name gives a salt, the structure may show the parent alone. Read-outs that look alike come from different tables or passages of the source.

T1 sequence (P31644 32-462): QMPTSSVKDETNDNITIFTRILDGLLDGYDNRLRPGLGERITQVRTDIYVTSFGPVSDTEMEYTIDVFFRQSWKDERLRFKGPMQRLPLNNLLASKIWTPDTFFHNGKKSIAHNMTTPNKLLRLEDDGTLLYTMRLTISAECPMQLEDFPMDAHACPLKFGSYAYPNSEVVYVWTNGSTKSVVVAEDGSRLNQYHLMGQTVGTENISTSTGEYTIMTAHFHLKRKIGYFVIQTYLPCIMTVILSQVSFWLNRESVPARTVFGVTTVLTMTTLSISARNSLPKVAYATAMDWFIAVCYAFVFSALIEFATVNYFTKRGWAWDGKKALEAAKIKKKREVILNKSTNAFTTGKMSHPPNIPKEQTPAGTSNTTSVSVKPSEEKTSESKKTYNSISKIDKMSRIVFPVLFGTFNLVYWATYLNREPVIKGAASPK
T1 sequence (P28472 26-473 partner): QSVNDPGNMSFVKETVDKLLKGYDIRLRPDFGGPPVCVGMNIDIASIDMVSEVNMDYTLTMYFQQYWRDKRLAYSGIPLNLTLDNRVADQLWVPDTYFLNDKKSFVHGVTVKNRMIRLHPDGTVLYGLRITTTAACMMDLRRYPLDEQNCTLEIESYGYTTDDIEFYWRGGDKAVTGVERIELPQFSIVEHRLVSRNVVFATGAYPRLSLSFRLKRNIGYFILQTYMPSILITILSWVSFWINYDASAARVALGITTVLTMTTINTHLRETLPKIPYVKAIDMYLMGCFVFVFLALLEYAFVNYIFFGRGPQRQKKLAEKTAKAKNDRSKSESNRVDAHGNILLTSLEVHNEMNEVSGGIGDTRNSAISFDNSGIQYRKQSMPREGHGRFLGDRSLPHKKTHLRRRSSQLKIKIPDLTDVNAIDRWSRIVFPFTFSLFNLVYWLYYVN
T1 sequence (P18507 40-475): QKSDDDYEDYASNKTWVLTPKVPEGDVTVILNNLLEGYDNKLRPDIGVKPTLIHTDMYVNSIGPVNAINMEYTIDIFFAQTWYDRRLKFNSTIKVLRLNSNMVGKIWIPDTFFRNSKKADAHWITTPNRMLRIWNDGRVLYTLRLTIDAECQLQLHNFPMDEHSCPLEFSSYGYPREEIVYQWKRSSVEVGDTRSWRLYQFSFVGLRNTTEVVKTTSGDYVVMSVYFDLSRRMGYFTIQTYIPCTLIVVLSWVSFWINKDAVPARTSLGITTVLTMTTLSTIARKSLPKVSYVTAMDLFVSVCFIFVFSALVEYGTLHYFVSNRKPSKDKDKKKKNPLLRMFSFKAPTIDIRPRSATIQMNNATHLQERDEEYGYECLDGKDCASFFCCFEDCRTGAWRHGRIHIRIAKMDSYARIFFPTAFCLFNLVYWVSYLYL

Consider `Cc1ccc(-c2noc(C)c2COc2cc3c(cn2)CN(C2COC2)CC3)cn1` [Example 10, 6-{[5-methyl-3-(6-methylpyridin-3-yl)-1,2-oxazol-4-yl]methoxy}-2-(oxetan-3-yl)-1,2,3,4-tetrahydro-2,7-naphthyridine], for which the activation at 1 µM in experiment [1] (setting [5]) was found to be 131%. In addition, the Ki in experiment [2] worked out at 4.5 nM.

With `Cc1ccc(-c2noc(C)c2COc2cc3c(cn2)CN(C2CCOCC2)CC3)cn1` [Example 11, 6-{[5-methyl-3-(6-methylpyridin-3-yl)-1,2-oxazol-4-yl]methoxy}-2-(oxan-4-yl)-1,2,3,4-tetrahydro-2,7-naphthyridine], the activation at 1 µM in experiment [1] (setting [5]) was found to be 114%. Moreover, in experiment [2], the inhibition constant Ki is 7.4 nM.

Consider `Cc1ccc(-c2noc(C)c2COc2cc3c(cn2)CN(c2ccccn2)CC3)cn1` [Example 13, 6-{[5-methyl-3-(6-methylpyridin-3-yl)-1,2-oxazol-4-yl]methoxy}-2-(pyridin-2-yl)-1,2,3,4-tetrahydro-2,7-naphthyridine], for which the activation at 1 µM in experiment [1] (setting [5]) was determined as 129%. In addition, the Ki in experiment [2] was 6.6 nM.

For the compound `Cc1ccc(-c2noc(C)c2COc2cc3c(nn2)CNCC3)cn1` [Example 14, 2-methyl-5-[5-methyl-4-({5H,6H,7H,8H-pyrido[3,4-c]pyridazin-3-yloxy}methyl)-1,2-oxazol-3-yl]pyridine], the activation at 1 µM in experiment [1] (setting [5]) amounted to 126%. Besides, in experiment [2], the Ki came out at 3.2 nM.

Regarding `Cc1onc(-c2ccc(C(F)(F)F)nc2)c1COc1cc2c(nn1)CNCC2` [Example 15, 5-[5-methyl-4-({5H,6H,7H,8H-pyrido[3,4-c]pyridazin-3-yloxy}methyl)-1,2-oxazol-3-yl]-2-(trifluoromethyl)pyridine], in experiment [1] (setting [5]), the activation at 1 µM came to 115%. The Ki in experiment [2] turned out to be 17.1 nM.

Turning to `Cc1ccc(-c2noc(C)c2COc2cc3c(nn2)CN(C)CC3)cn1` [Example 16, 2-methyl-5-{5-methyl-4-[({7-methyl-5H,6H,7H,8H-pyrido[3,4-c]pyridazin-3-yl}oxy)methyl]-1,2-oxazol-3-yl}pyridine], in experiment [1] (setting [5]), the activation at 1 µM stood at 146%. Besides, in experiment [2], the Ki worked out at 5.6 nM.

Regarding `Cc1onc(-c2ccc(C(F)(F)F)nc2)c1COc1cc2c(nn1)CN(CC1CCS(=O)(=O)C1)CC2` (stereo not drawn) [Example 19, 3-{[3-({5-methyl-3-[6-(trifluoromethyl)pyridin-3-yl}-1,2-oxazol-4-yl]methoxy)-5H,6H,7H,8H-pyrido[3,4-c]pyridazin-7-yl]methyl}-1lambda6-thiolane-1,1-dione tartarate salt], the activation at 1 µM in experiment [1] amounted to 129%. Besides, in experiment [2], the inhibitory constant (Ki) came to 35.5 nM.

For the compound `Cc1ccc(-n2nnc(C)c2COc2cc3c(cn2)CNCC3)cn1` [Example 20, 6-{[4-methyl-1-(6-methylpyridin-3-yl)-1H-1,2,3-triazol-5-yl]methoxy}-1,2,3,4-tetrahydro-2,7-naphthyridine], in experiment [1] (setting [5]), the activation at 1 µM amounted to 111%. The Ki in experiment [2] worked out at 26.5 nM.

For the compound `Cc1ccc(-n2nnc(C)c2COc2cc3c(cn2)CN(C)CC3)cn1` [Example 21, 2-methyl-6-{[4-methyl-1-(6-methylpyridin-3-yl)-1H-1,2,3-triazol-5-yl]methoxy}-1,2,3,4-tetrahydro-2,7-naphthyridine], the activation at 1 µM in experiment [1] (setting [5]) was determined as 134%. For the same compound, the inhibition constant Ki in experiment [2] was 23 nM.

Take `Cc1ccc(-n2nnc(C)c2COc2cc3c(cn2)CN(C(C)C)CC3)cn1` [Example 22, 6-{[4-methyl-1-(6-methylpyridin-3-yl)-1H-1,2,3-triazol-5-yl]methoxyl}-2-(propan-2-yl)-1,2,3,4-tetrahydro-2,7-naphthyridine]: in experiment [1] (setting [5]), the activation at 1 µM was 68%. For the same compound, the Ki in experiment [2] worked out at 22.7 nM.

`Cc1nnn(-c2ccc(C(F)F)nc2)c1COc1cc2c(cn1)CN(C)CC2` [Example 24, 6-({1-[6-(difluoromethyl)pyridin-3-yl]-4-methyl-1H-1,2,3-triazol-5-yl}methoxy)-2-methyl-1,2,3,4-tetrahydro-2,7-naphthyridine]: the activation at 1 µM in experiment [1] (setting [5]) worked out at 88%. Further, the Ki in experiment [2] came out at 8.3 nM.

In the case of `Cc1nnn(-c2ccc(C(F)(F)F)nc2)c1COc1cc2c(cn1)CNCC2` [Example 25, 6-({4-methyl-1-[6-(trifluoromethyl)pyridin-3-yl]-1H-1,2,3-triazol-5-yl}methoxy)-1,2,3,4-tetrahydro-2,7-naphthyridine], the activation at 1 µM in experiment [1] (setting [5]) was 73%. The Ki in experiment [2] was determined as 128 nM.

With `Cc1nnn(-c2ccc(C(F)F)nc2)c1COc1cc2c(cn1)CN(C1CCOC1)CC2` (stereo not drawn) [Example 30, 6-({1-[6-(difluoromethyl)pyridin-3-yl]-4-methyl-1H-1,2,3-triazol-5-yl}methoxy)-2-(oxolan-3-yl)-1,2,3,4-tetrahydro-2,7-naphthyridine], the activation at 1 µM in experiment [1] (setting [5]) was 59%. Further, the Ki in experiment [2] amounted to 3.3 nM.

On to `Cc1ccc(-n2nnc(C)c2COc2cc3c(cn2)CN(C2COC2)CC3)cn1` [Example 31, 6-{[4-methyl-1-(6-methylpyridin-3-yl)-1H-1,2,3-triazol-5-yl]methoxy}-2-(oxetan-3-yl)-1,2,3,4-tetrahydro-2,7-naphthyridine], for which the activation at 1 µM in experiment [1] (setting [5]) is 115%. Further, the inhibition constant Ki in experiment [2] amounted to 36 nM.

`Cc1nnn(-c2ccc(C(F)(F)F)nc2)c1COc1cc2c(cn1)CN(C1CCOC1)CC2` (stereo not drawn) [Example 32, 6-({4-methyl-1-[6-(trifluoromethyl)pyridin-3-yl]-1H-1,2,3-triazol-5-yl}methoxy)-2-(oxolan-3-yl)-1,2,3,4-tetrahydro-2,7-naphthyridine]: the activation at 1 µM in experiment [1] (setting [5]) was 155%. The inhibitory constant (Ki) in experiment [2] was 44.5 nM.

Take `Cc1ccc(-n2nnc(C)c2COc2cc3c(cn2)CN(C2CCOCC2)CC3)cn1` [Example 33, 6-{[4-methyl-1-(6-methylpyridin-3-yl)-1H-1,2,3-triazol-5-yl]methoxy}-2-(oxan-4-yl)-1,2,3,4-tetrahydro-2,7-naphthyridine]: the activation at 1 µM in experiment [1] (setting [5]) was 71%. The Ki in experiment [2] was determined as 29.5 nM.

In the case of `COc1ccc(-n2nnc(C)c2COc2cc3c(cn2)CNCC3)cn1` [Example 34, 6-{[1-(6-methoxypyridin-3-yl)-4-methyl-1H-1,2,3-triazol-5-yl]methoxy}-1,2,3,4-tetrahydro-2,7-naphthyridine], in experiment [1] (setting [5]), the activation at 1 µM is 62%. Besides, the Ki in experiment [2] is 51.6 nM.

Consider `Cc1ccc(-n2nnc(C)c2COc2cc3c(nn2)CNCC3)cn1` [Example 44, 2-methyl-5-[4-methyl-5-({5H,6H,7H,8H-pyrido[3,4-c]pyridazin-3-yloxy}methyl)-1H-1,2,3-triazol-1-yl]pyridine], for which the activation at 1 µM in experiment [1] (setting [5]) came out at 96%. In addition, in experiment [2], the inhibition constant (Ki) was 40.4 nM.

With `Cc1ccc(-n2nnc(C)c2COc2cc3c(nn2)CN(CC2CCC2)CC3)cn1` [Example 45, 5-[5-({[7-(cyclobutylmethyl)-5H,6H,7H,8H-pyrido[3,4-c]pyridazin-3-yl]oxy}methyl)-4-methyl-1H-1,2,3-triazol-1-yl]-2-methylpyridine tartarate salt], the activation at 1 µM in experiment [1] came to 97%. For the same compound, in experiment [2], the Ki was 99.5 nM.

For `Cc1ccc(-n2nnc(C)c2COc2cc3c(nn2)CN(C2CCC2)CC3)cn1` [Example 46, 5-{5-[({7-cyclobutyl-5H,6H,7H,8H-pyrido[3,4-c]pyridazin-3-yl}oxy)methyl]-4-methyl-1H-1,2,3-triazol-1-yl}-2-methylpyridine tartarate salt], the activation at 1 µM in experiment [1] was 76%. Further, the inhibition constant (Ki) in experiment [2] was 61.5 nM.

As for `C#Cc1ccc2c(c1)C(c1ccccc1F)=N[C@H](C)c1c(C(=O)OCC)ncn1-2` [SH-053-2′F—R—CH3], the behavioural effects result in experiment [3] was “procognitive, anxiolytic and antidepressant effects”. Also, the “pathological changes of locomotor activity” value in experiment [4] is “attenuated pathological changes of locomotor activity”.

As usually defined, the Ki is a dissociation constant, usually derived from enzyme kinetics or from competition with a known ligand.
